These results are taken from US4250176A, “Piperazine derivatives” (priority 1979, dated 1981).

In brackets after ≈: the same amount, converted by molar mass. Counter-ions that a name gives are not always drawn. Like-named read-outs stand apart in the source and are kept apart here. Bounds are passed on as bounds.

Experiment [1] has as its system Guinea pigs sensitized to ovalbumin (anaphylactic shock). Description: Anaphylaxis in guinea pigs: protection against death after ovalbumin challenge (survival). It is filed as in vivo, guinea pig. The note with it: Cavia porcellus, estimated ED50, oral, protection against death after i.v. 0.6 mg ovalbumin, read-out: Anaphylaxis in guinea pigs oral effective dose in mg/kg: Survival. Here is the method: The anti-anaphylactic and antihistaminic effects of the subject compounds (I) and salts thereof are studied "in vivo" in guinea pigs.
Guinea pigs, weighing between 400 and 500 g, are sensitized to ovalbumin by subplantar (s.p.) injection of 0.05 ml of antiserum in the left hind paw. The animals are then starved and orally treated, 24 hours after the sensitization, with saline (=control animals) or a particular dose of the compound under investigation.
The histamine injection (at a dose of 50 μg) was given s.p. in the right hind paw 2 hours after the oral pretreatment with the compound. The diameters of both hind paws are first measured before the histamine injection is given and again 10 minutes thereafter. The animals are challenged intravenously with 0.6 mg of ovalbumin 30 minutes after the histamine injection. All control animals develop typical primary anaphylactic shock symptoms (coughing, difficult breathing, convulsions) and 85% of these control animals die within 15 minutes after the ovalbumin injection. Protection against death is used as the criterion for possible drug effects and the estimated ED50 -value, i.e. the oral dose whereby the protection is observed in 50% of the guinea pigs, is listed in the tables below.

Experiment [2] concerns Guinea-pig ileum strips, histamine-induced contraction. Description: Anti-histamine activity in "vitro": histamine-induced spasms of guinea-pig ileum strips. Format: cell-based. The note with it: Cavia porcellus, 5 min, histamine 0.5 mg/liter, 5 minutes incubation, concentration giving significant inhibition (50%) of the contraction. Here is the method:
The histamine--(0.5 mg/liter) induced spasms are recorded Kymographically with an isotonic lever giving a 5-fold magnification.

The test system of experiment [3] is histamine paw oedema in guinea pigs. Nature of the experiment: Histamine paw oedema in guinea pigs. It is filed as in vivo, guinea pig. The note with it: Cavia porcellus, oral dose giving paw reaction below 10 units 10 minutes after 50 μg histamine s.p., 2 hours after dosing, read-out: Anaphylaxis in guinea pigs oral effective dose in mg/kg: Histamine oedema. Here is the method: Guinea pigs, weighing between 400 and 500 g, are sensitized to ovalbumin by subplantar (s.p.) injection of 0.05 ml of antiserum in the left hind paw. The animals are then starved and orally treated, 24 hours after the sensitization, with saline (=control animals) or a particular dose of the compound under investigation. The histamine injection (at a dose of 50 μg) was given s.p. in the right hind paw 2 hours after the oral pretreatment with the compound.

The mark [4] stands for this setting: Table I-a, read-out: Histamine in "vitro" (ileum) effective conc.
Setting [5] is: Table I-b, read-out: Histamine in "vitro" (ileum) effective conc.
The mark [6] stands for this setting: Table I-e, read-out: Histamine in "vitro" (ileum) effective dose.

`Cc1ccc(C(c2ccccc2)N2CCN(CCCn3c(=O)[nH]c4ccccc43)CC2)cc1` (stereo not drawn) [1,3-dihydro-1-[3-{4-[(4-methylphenyl)phenylmethyl]-1-piperazinyl}-propyl}-2H-benzimidazol-2-one]: the ED50 in experiment [1] (Table I-a) was under 2.5 mg/kg. Moreover, the IC50 in experiment [2] (setting [4]) came out at 0.08 µg/mL (≈ 0.182 µM). For the same compound, in experiment [3] (Table I-a), the minimal effective dose was under 2.5 mg/kg. Consider `O=c1[nH]c2ccccc2n1CCCN1CCN(C(c2ccccc2)c2ccc([N+](=O)[O-])cc2)CC1` (stereo not drawn) [1,3-dihydro-1-[3-{4-[(4-nitrophenyl)phenylmethyl]-1-piperazinyl}propyl]-2H-benzimidazol-2-one], for which the ED50 in experiment [1] (Table I-a) is under 2.5 mg/kg. The IC50 in experiment [2] (setting [4]) was 0.16 µg/mL (≈ 0.339 µM). The minimal effective dose in experiment [3] (Table I-a) was under 2.5 mg/kg.

As for `O=c1[nH]c2ccccc2n1CCN1CCC(OC(c2ccc(F)cc2)c2ccc(F)cc2)CC1` [1-[2-{4-[bis(4-fluorophenyl)methoxy]-1-piperidinyl}ethyl]-1,3-dihydro-2H-benzimidazol-2-one hydrochloride.hemihydrate], the ED50 in experiment [1] (Table I-d) was 0.31 mg/kg. For the same compound, the IC50 in experiment [2] (Table I-d, read-out: Histamine in "vitro" (ileum) effective dose) was determined as 0.0025 µg/mL. In addition, the minimal effective dose in experiment [3] (Table I-d) came out at 0.31 mg/kg. For the compound `O=c1[nH]c2ccccc2n1CCN1CCN(C(c2ccc(F)cc2)c2ccc(F)cc2)CC1` [1-[2-{4-[bis(4-fluorophenyl)methyl]-1-piperazinyl}ethyl]-1,3-dihydro-2H-benzimidazol-2-one hemihydrate], the ED50 in experiment [1] (Table I-a) was 0.63 mg/kg. Besides, the IC50 in experiment [2] (setting [4]) amounted to 0.02 µg/mL. Further, the minimal effective dose in experiment [3] (Table I-a) was found to be 0.63 mg/kg. For `O=c1[nH]c2ccccc2n1CCCN1CCN(C(c2ccccc2)c2ccccc2Cl)CC1` (stereo not drawn) [1-[3-{4-[(2-chlorophenyl)phenylmethyl]-1-piperazinyl}-propyl]-1,3-dihydro-2H-benzimidazol-2-one], in experiment [2] (setting [4]), the IC50 turned out to be 0.08 µg/mL (≈ 0.174 µM). Regarding `CC(CN1CCN(C(c2ccccc2)c2ccccc2)CC1)Cn1cnc2ccccc21` (stereo not drawn) [1-{3-[4-(diphenylmethyl)-1-piperazinyl]-2-methylpropyl}-1H-benzimidazole trihydrochloride.hemihydrate], the IC50 in experiment [2] (setting [5]) was determined as 0.02 µg/mL. Regarding `CNC(=O)n1c(=O)n(CCCN2CCN(C(c3ccccc3)c3ccccc3)CC2)c2ccccc21` [3-{3-[4-(diphenylmethyl)-1-piperazinyl]propyl}-2,3-dihydro-N-methyl-2-oxo-1H-benzimidazole-1-carboxamide], the IC50 in experiment [2] (setting [4]) turned out to be 0.02 µg/mL (≈ 0.0414 µM).

As to `O=c1[nH]c2cccc(Cl)c2n1CCCN1CCN(C(c2ccccc2)c2ccccc2)CC1` [4-chloro-3-{3-[4-(diphenylmethyl)-1-piperazinyl]propyl}-1,3-dihydro-2H-benzimidazol-2-one], the ED50 in experiment [1] (Table I-a) is at least 2.5 mg/kg. Further, the IC50 in experiment [2] (setting [4]) was found to be 0.08 µg/mL (≈ 0.174 µM).

Regarding `O=c1n(CCCN2CCN(C(c3ccccc3)c3ccccc3)CC2)c2ccc(Cl)cc2n1-c1ccccc1` [5-chloro-1-{3-[4-(diphenylmethyl)-1-piperazinyl]propyl}-1,3-dihydro-3-phenyl-2H-benzimidazol-2-one dihydrochloride.hemihydrate], the IC50 in experiment [2] (setting [4]) was 0.08 µg/mL.

Regarding `Clc1ccc2c(c1)nc(Cc1ccccc1)n2CCCN1CCN(C(c2ccccc2)c2ccccc2)CC1` [5-chloro-1-{3-[4-(diphenylmethyl)-1-piperazinyl]propyl}-2-(phenylmethyl)-1H-benzimidazole trihydrochloride.hydrate], the ED50 in experiment [1] (Table I-b) was 2.5 mg/kg. In the case of `Clc1ccc2c(c1)nc(C1CCCCC1)n2CCCN1CCN(C(c2ccccc2)c2ccccc2)CC1` [5-chloro-2-cyclohexyl-1-{5-[4-diphenylmethyl)-1-piperazinyl]propyl}-1H-benzimidazole], the ED50 in experiment [1] (Table I-b) was 0.63 mg/kg. In addition, the minimal effective dose in experiment [3] (Table I-b) is 2.5 mg/kg. `Clc1ccc2nc(C3CCCCC3)n(CCCN3CCN(C(c4ccccc4)c4ccccc4)CC3)c2c1` [6-chloro-2-cyclohexyl-1-[3-[4-(diphenylmethyl)-1-piperazinyl]propyl}-1H-benzimidazole]: in experiment [1] (Table I-b), the ED50 was 2.5 mg/kg. For the compound `CCc1nc2cc(Cl)ccc2n1CCCN1CCN(C(c2ccccc2)c2ccccc2)CC1` [I-b: M=C2H5, R1=5-Cl, (CH2)3, R6=H, R7=H, 5-chloro-1-{3-[4-(diphenylmethyl)-1-piperazinyl]propyl}-2-ethyl-1H-benzimidazole trihydrochloride.hydrate], the IC50 in experiment [2] (setting [5]) is 0.01 µg/mL. As for `CCc1nc2ccccc2n1CCN1CCN(C(c2ccccc2)c2ccccc2)CC1` [I-b: M=C2H5, R1=H, (CH2)2, R6=H, R7=H, 1-{2-[4-(diphenylmethyl)-1-piperazinyl]ethyl}-2-ethyl-1H-benzimidazole trihydrochloride.hydrate], the IC50 in experiment [2] (setting [5]) is at least 0.16 µg/mL. In the case of `Clc1ccc2nc(-c3ccccc3)n(CCCN3CCN(C(c4ccccc4)c4ccccc4)CC3)c2c1` [I-b: M=C6H5, R1=6-Cl, (CH2)3, R6=H, R7=H, 6-chloro-1-{3-[4-(diphenylmethyl)-1-piperazinyl]propyl}-2-phenyl-1H-benzimidazole], in experiment [1] (Table I-b), the ED50 was 2.5 mg/kg. Consider `c1ccc(-c2nc3ccccc3n2CCCN2CCN(C(c3ccccc3)c3ccccc3)CC2)cc1` [I-b: M=C6H5, R1=H, (CH2)3, R6=H, R7=H, 1-{3-[4-(diphenylmethyl)-1-piperazinyl]propyl}-2-phenyl-1H-benzimidazole], for which the IC50 in experiment [2] (setting [5]) turned out to be 0.08 µg/mL (≈ 0.164 µM). For the compound `c1ccc(Cc2nc3ccccc3n2CCCN2CCN(C(c3ccccc3)c3ccccc3)CC2)cc1` [I-b: M=C6H5CH2, R1=H, (CH2)3, R6=H, R7=H, 1-{3-[4-(diphenylmethyl)-1-piperazinyl]propyl}-2-(phenylmethyl)-1H-benzimidazole trihydrochloride.trihydrate], in experiment [2] (setting [5]), the IC50 is at least 0.16 µg/mL. Regarding `CC(=O)N=c1[nH]c2ccccc2n1CCCN1CCN(C(c2ccccc2)c2ccccc2)CC1` [I-b: M=CH3CONH, R1=H, (CH2)3, R6=H, R7=H, N-[1-{3-[4-(diphenylmethyl)-1-piperazinyl]propyl}-1,3-dihydro-2H-benzimidazol-2-ylidene]acetamide], the ED50 in experiment [1] (Table I-b) is 2.5 mg/kg. In addition, in experiment [2] (setting [5]), the IC50 is at least 0.16 µg/mL. Regarding `O=c1[nH]c2ccccc2n1CCCN1CCN(C(c2ccncc2)c2ccc(F)cc2)CC1` (stereo not drawn) [I-e: Ar1=4-FC6H4, Ar2=4-pyridinyl, 1-[3-{4-[(4-fluorophenyl)(4-pyridinyl)methyl]-1-piperazinyl}propyl]-1,3-dihydro-2H-benzimidazol-2-one], the IC50 in experiment [2] (setting [6]) worked out at 0.16 µg/mL (≈ 0.359 µM). Further, the minimal effective dose in experiment [3] (Table I-e) is at most 2.5 mg/kg. In the case of `Cc1ccc(C)c(C(c2ccccc2)N2CCN(CCCn3c(=O)[nH]c4ccccc43)CC2)c1` (stereo not drawn) [I-e: Ar1=C6H5, Ar2=2,5-(CH3)2C6H3, 1-[3-{4-[(2,5-dimethylphenyl)phenylmethyl]-1-piperazinyl}propyl]-1,3-dihydro-2H-benzimidazol-2-one], the IC50 in experiment [2] (setting [6]) was determined as 0.16 µg/mL (≈ 0.352 µM). Regarding `O=c1[nH]c2ccccc2n1CCCN1CCN(C(c2ccccc2)c2ccccn2)CC1` (stereo not drawn) [I-e: Ar1=C6H5, Ar2=2-pyridinyl, 1,3-dihydro-1-[3-{4-[phenyl(2-pyridinyl)methyl]-1-piperazinyl}propyl]-2H-benzimidazol-2-one], the IC50 in experiment [2] (setting [6]) was found to be 0.16 µg/mL (≈ 0.374 µM). In addition, the minimal effective dose in experiment [3] (Table I-e) was 2.5 mg/kg. As to `O=c1[nH]c2ccccc2n1CCCN1CCN(C(c2ccccc2)c2cccnc2)CC1` (stereo not drawn) [I-e: Ar1=C6H5, Ar2=3-pyridinyl, 1,3-dihydro-1-[3-{4-[phenyl(3-pyridinyl)methyl]-1-piperazinyl}propyl]-2H-benzimidazol-2-one], the IC50 in experiment [2] (setting [6]) was 0.08 µg/mL (≈ 0.187 µM). Also, the minimal effective dose in experiment [3] (Table I-e) is under 2.5 mg/kg.
